The assay addresses T1, human FXR (NR1H4) (Homo sapiens, UniProt Q96RI1).
T1 construct: host or cells: CHO (Chinese hamster ovary) cells
T1 sequence (Q96RI1 1-486): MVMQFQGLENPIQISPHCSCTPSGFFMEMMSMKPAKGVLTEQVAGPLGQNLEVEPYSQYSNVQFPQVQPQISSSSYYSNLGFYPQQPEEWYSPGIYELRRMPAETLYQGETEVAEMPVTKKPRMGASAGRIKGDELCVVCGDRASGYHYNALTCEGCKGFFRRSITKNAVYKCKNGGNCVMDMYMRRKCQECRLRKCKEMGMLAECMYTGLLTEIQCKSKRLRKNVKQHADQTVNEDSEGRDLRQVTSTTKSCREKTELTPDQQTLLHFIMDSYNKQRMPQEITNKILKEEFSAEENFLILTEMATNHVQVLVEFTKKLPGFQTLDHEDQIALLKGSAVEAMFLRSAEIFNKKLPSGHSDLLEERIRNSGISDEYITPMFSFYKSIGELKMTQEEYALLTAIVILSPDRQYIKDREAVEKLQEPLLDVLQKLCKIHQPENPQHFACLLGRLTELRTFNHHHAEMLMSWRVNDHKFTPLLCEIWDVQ
Description: Human FXR (NR1H4) Assay (Gal4 promoter driven luciferase reporter transactivation, Indigo Bioscience kit IB00601). Type of assay: cell-based. The conditions noted are these: for EC50: Human FXR (NR1H4) reporter assay, CHO cells expressing human NR1H4, potency ranges; for Efficacy (%): efficacy normalized to CDCA set as 100%. The text has this: Human FXR (NR1H4) Assay Determination of a ligand mediated Gal4 promoter driven transactivation to quantify ligand binding mediated activation of FXR. FXR Reporter Assay kit purchased from Indigo Bioscience (Catalogue number: IB00601) to determine the potency and efficacy of compound developed by Enanta that can induce FXR activation. The principle application of this reporter assay system is to quantify functional activity of human FXR. The assay utilizes non-human mammalian cells, CHO (Chinese hamster ovary) cells engineered to express human NR1H4 protein (referred to as FXR). Reporter cells also incorporate the cDNA encoding beetle luciferase which catalyzes the substrates and yields photon emission. Luminescence intensity of the reaction is quantified using a plate-reading luminometer, Envision. Reporter Cells include the luciferase reporter gene functionally linked to an FXR responsive promoter. Thus, quantifying changes in luciferase expression in the treated reporter cells provides a sensitive surrogate measure of the changes in FXR activity. […] The assay is according to the manufacturer's instructions. […] Retrieve Reporter Cells from −80° C. storage. Perform a rapid thaw of the frozen cells by transferring a 10 ml volume of 37° C. cell recovery medium into the tube of frozen cells. Recap the tube of Reporter Cells and immediately place it in a 37° C. water bath for 5-10 minutes. Retrieve the tube of Reporter Cell Suspension from the water bath. Sanitize the outside surface of the tube with a 70% alcohol swab, and then transfer it into the cell culture hood. Dispense 90 μl of cell suspension into each well of the 96-well Assay Plate. Transfer the plate into 37° C. incubator, allowing the cells adherent to the bottom of the well. Dilute compounds in Dilution Plate (DP), and administrate to cells at Assay Plate (AP). DMSO content of the samples was kept at 0.2%. Cells were incubated for additional 22 hours before luciferase activities were measured. Thirty minutes before intending to quantify FXR activity, remove Detection Substrate and Detection Buffer from the refrigerator and place them in a low-light area so that they may equilibrate to room temperature. Remove the plate's lid and discard all media contents by ejecting it into an appropriate waste container. Gently tap the inverted plate onto a clean absorbent paper towel to remove residual droplets. Cells will remain tightly adhered to well bottoms. Add 100 μl of luciferase detection reagent to each well of the assay plate. Allow the assay plate to rest at room temperature for at least 5 minutes following the addition of LDR. Set the instrument (Envision) to perform a single 5 second “plate shake” prior to reading the first assay well. Read time may be 0.5 second (500 mSec) per well.

SMILES strings stand for the structures.

Consider `CC(C)c1onc(-c2c(Cl)cccc2Cl)c1COc1ccc(-c2ccc3c(C(=O)NS(=O)(=O)N(C)C)cccc3c2)cc1` [Compound 90], for which the concentration for a half-maximal effect (EC50) (usually the concentration that produces a half-maximal response) lay within 100 to 1000 nM and the “Efficacy (%)” value came out at 1.3%.

In the case of `CC(C)c1onc(-c2c(Cl)cccc2Cl)c1COc1ccc(-c2ccc3c(C(=O)O)cccc3c2)cc1` [Compound (1), reference compound], the 50% effective concentration (EC50) lay in the range of 100 to 1000 nM and the “Efficacy (%)” value is given as 220%.

On to `CC(C)c1onc(-c2c(Cl)cccc2Cl)c1COc1ccc(-c2ccc3c(NC(=O)NS(=O)(=O)C4CC4)cccc3c2)cc1` [Compound 11], for which the EC50 was 100 to 1000 nM and the “Efficacy (%)” value was determined as 1.2%.

In the case of `CC(C)c1onc(-c2c(Cl)cccc2Cl)c1COc1ccc(-c2ccc3c(NC(=O)NS(=O)(=O)c4ccccc4)cccc3c2)cc1` [Compound 16], the EC50 lay within 100 to 1000 nM and the “Efficacy (%)” value was determined as 117%.

For the origin of these results see patent US10080743B2, “Isoxazole derivatives as FXR agonists and methods of use thereof” (Enanta Pharmaceuticals, Inc., priority 2016, dated 2018).
